The nature of this data set: Solution stability of N-protected and C-protected amino acid. The class given is physicochemical. Particulars: N-protected and C-protected amino acid (Fmoc-Leu condensed with the listed compound) in tetrahydrofuran and acetic acid, room temperature, three days; amount remaining (survival rate). On the procedure:
The obtained N-protected and C-protected amino acid (10 mg) and 2,6-di-tert-butyl-4-methylphenol (internal standard: 8 mg) were dissolved in a tetrahydrofuran solution (20 mL) and acetic acid (2 mL), respectively, and after allowing time to pass at room temperature for three days, the amount of remaining N-protected and C-protected amino acid was determined and evaluated based on the following standard.
Regarding the evaluation of the solution stability, a case of “B” or higher was regarded as acceptable.
It can be said that, as the solution stability is higher, peptide stability is high, side reactions can be suppressed, and yield is excellent.
—Evaluation Standard— • “A”: survival rate was 99% or more. • “B”: survival rate was 97% or more and less than 99%. • “C”: survival rate was 95% or more and less than 97%. • “D”: survival rate was less than 95%.

Results on 2 compounds are retold here after patent publication US20220112233A1, “METHOD FOR PRODUCING PEPTIDE COMPOUND, PROTECTIVE GROUP-FORMING REAGENT, AND CONDENSED POLYCYCLIC AROMATIC HYDROCARBON COMPOUND” (FUJIFILM CORPORATION, priority 2019, published 2022).

Regarding `CCCCCCCCCCCCCCCCCCCCCCOc1ccc(C(O)c2ccc(OCCCCCCCCCCCCCCCCCCCCCC)cc2)cc1` [Comparative compound (1-1)], the Solution stability entry was “C (survival rate was 95% or more and less than 97%)”. `CCCCCCCCCCCCCCCCCCCCCCOc1cc(COc2ccc3cc(C(O)c4ccc(OC)cc4)ccc3c2)cc(OCCCCCCCCCCCCCCCCCCCCCC)c1` (centres unmarked) [Compound (1-2)]: the Solution stability result is reported as “A (survival rate was 99% or more)”.
